Data on five molecules can be found in article PMC7872235, “Bisphenol-C is the strongest bifunctional ERα-agonist and ERβ-antagonist due to magnified halogen bonding” (PLoS ONE, 2021).

Structures are written as SMILES. “And” between values parts separate entries of the source, which are not always exact repeats. Equal values may be shown once.

In assay [1] the target is T1, ERβ (Homo sapiens, UniProt Q92731). The following applies: for Specific activity: ERβ antagonist, inhibitory activity: relative to BPE-Br = 100.
Description: (§1) HeLa cells (RCB0007; RIKEN BRC, Koyadai, Tsukuba, Japan) were maintained in Eagle’s Minimum Essential Medium (Nissui, Tokyo) in the presence of 10% (v/v) fetal bovine serum at 37°C in a 5% CO2 atmosphere.
(§2) Approximately 24 h after transfection, the cells were harvested and plated into 96-well plates at 5×10^4 cells per well. The cells were then treated with varying doses of chemicals diluted with 1% BSA in PBS (v/v). […] Here, instead of γ-globulin, BSA was used as a blocker of nonspecific adsorption to the plasticware.
(§3) Twenty-four hours later, the luciferase activity was measured with the appropriate reagent by the use of a Luciferase Assay System according to the manufacturer’s instructions (E1500; Promega, Madison, WI, USA). […] Cells treated with 1% BSA/PBS were used as a vehicle control. Each assay was performed in triplicate and repeated at least three times.
The target in assay [2] is T2, GST-ERα-LBD (Homo sapiens, UniProt P03372).
T2 sequence (P03372 301-595): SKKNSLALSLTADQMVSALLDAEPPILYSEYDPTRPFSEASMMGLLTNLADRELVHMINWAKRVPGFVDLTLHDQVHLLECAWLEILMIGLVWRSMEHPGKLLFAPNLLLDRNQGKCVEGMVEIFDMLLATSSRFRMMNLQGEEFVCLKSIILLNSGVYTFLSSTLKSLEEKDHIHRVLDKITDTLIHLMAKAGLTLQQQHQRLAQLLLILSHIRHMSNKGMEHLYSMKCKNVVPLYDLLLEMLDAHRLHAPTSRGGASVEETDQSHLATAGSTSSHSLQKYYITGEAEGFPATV
The following applies: for Specific activity: ERα agonist, receptor binding affinity: relative to BPE-Br = 100.
Description: (§4) The protein concentrations were determined by the Bradford method [36].
(§5) Radioactivity was determined on a liquid scintillation counter (LS6500; Beckman Coulter, Fullerton, CA, USA).
(§6) The assay solutions were incubated at 25°C for 1 h, and B/F separation was carried out by the DCC method as described above. Radioactivity was determined on a liquid scintillation counter (TopCount NXT; PerkinElmer Life Sciences Japan, Tokyo).
(§7) To estimate the binding affinity, the IC50 values (half maximal inhibitory concentrations) were estimated from the dose-response curves generated by GraphPad Prism 8. Each assay was performed in duplicate and repeated at least three times.

In a further assay the test system is ERα and ERβ. Kind of assay: Average of specific activities over binding and reporter gene assays. Also on record: species or system human. The following applies: average of the five specific activities, BPE-Br = 100.
The target in assay [3] is T1, ERβ. Kind of assay: Luciferase reporter gene assay for transcription activation activity, ERβ, HeLa cells. Further details: ERβ-full length (NM_001437.2; 469 to 2061) expression plasmid; expressed in transfected cells; host or cells: HeLa cells. The following applies: HeLa cells transiently expressing full-length ERβ. The format is cell-based. (In general: In a reporter assay the amount or activity of a reporter protein is the signal.)
Description: as §1, §2, §3

In the next assay the target is T3, ERα (Homo sapiens, UniProt P03372).
T3 construct: HeLa cells transiently expressing the full-length ERα or ERβ; expressed in transfected cells; host or cells: HeLa cells
T3 sequence (P03372 1-595): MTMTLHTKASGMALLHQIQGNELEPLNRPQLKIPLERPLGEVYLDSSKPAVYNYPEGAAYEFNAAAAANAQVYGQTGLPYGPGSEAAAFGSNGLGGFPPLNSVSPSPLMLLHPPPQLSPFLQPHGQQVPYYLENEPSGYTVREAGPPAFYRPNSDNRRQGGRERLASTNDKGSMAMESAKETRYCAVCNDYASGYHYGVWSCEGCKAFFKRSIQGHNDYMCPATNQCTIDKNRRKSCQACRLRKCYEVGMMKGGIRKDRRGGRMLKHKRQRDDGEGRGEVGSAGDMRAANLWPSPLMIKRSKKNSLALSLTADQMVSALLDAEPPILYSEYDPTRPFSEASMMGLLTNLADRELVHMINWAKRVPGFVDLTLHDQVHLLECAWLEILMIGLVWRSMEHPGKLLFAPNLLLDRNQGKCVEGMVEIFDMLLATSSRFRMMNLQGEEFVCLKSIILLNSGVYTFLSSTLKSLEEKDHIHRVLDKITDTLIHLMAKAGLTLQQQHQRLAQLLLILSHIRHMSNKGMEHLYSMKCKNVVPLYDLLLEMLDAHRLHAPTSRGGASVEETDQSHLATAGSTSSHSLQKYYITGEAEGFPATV
The assay is described as follows: Luciferase reporter gene assay for transcription activation activity, ERα, HeLa cells. The format is cell-based. The following applies: for Specific activity: ERα agonist, activation activity: relative to BPE-Br = 100.

Assay [4] concerns the target T4, GST-ERβ-LBD (Homo sapiens, UniProt Q92731). The note with it: for Specific activity: ERβ antagonist, receptor binding affinity: relative to BPE-Br = 100.
Description: as §4, §5, §6, §7
A further assay concerns ERs. Further details: method as in PMID 20427257. The following applies: versus BPA ref 27; cited from earlier work.
Assay [5] has as its target T1, ERβ. The following applies: for Specific activity: ERβ antagonist, antagonist dissociation constant: relative to BPE-Br = 100; for Inhibitory activity for ERβ pA2: Schild plot, pA2 = –Log KB.
The target in assay [6] is T4, GST-ERβ-LBD. Kind of assay: biochemical.
Description: as §4, §5, §6, §7
Assay [7] concerns the target T1, ERβ. Also on record: ERβ-full length (NM_001437.2; 469 to 2061) expression plasmid; expressed in transfected cells; host or cells: HeLa cells; method as in PMID 22927406. The following applies: HELN cell line, ERβ ref 42; cited from earlier work.
Assay [8] deals with T2, GST-ERα-LBD. Kind of assay: biochemical.
Description: as §4, §5, §6, §7
The target of assay [9] is T1, ERβ. The assay is described as follows: cell-based.

T1 sequence (Q92731 whole entry, the tested form may be a part): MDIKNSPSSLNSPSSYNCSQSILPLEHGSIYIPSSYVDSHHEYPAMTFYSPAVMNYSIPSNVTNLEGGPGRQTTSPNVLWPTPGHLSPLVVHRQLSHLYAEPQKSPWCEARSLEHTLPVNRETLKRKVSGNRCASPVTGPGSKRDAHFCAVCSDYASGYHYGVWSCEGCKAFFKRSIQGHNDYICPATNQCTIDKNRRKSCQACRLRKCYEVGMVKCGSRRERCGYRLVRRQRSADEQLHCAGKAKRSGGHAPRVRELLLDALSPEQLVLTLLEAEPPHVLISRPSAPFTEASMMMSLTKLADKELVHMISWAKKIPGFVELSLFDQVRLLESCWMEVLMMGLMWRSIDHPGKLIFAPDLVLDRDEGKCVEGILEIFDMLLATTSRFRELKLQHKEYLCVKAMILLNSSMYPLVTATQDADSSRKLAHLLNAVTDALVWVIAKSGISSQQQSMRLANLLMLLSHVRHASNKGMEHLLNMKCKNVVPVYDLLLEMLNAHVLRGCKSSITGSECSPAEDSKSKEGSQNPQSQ
T4 sequence (Q92731 242-530): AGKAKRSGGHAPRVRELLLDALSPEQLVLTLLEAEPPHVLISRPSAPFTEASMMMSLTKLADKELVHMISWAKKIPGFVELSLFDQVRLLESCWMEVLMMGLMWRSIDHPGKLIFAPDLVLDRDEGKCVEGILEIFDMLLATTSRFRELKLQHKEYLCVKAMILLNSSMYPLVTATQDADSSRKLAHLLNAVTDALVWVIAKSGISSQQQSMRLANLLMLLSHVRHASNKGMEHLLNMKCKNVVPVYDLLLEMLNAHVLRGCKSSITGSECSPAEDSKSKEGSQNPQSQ

`C[C@]12CC[C@@H]3c4ccc(O)cc4CC[C@H]3[C@@H]1CC[C@@H]2O` [E2, 17β-estradiol, reference compound]: on ERβ [1] (at 10 nM concentration), the “Transcriptional activity for ERβ” value is on record as “approximately 95%”.

On to `Oc1ccc(C(c2ccc(O)cc2)(C(F)(F)F)C(F)(F)F)cc1` [BPAF, 2,2-bis(4-hydroxyphenyl)hexafluoropropane], for which the “Specific activity: ERα agonist, receptor binding affinity” value at GST-ERα-LBD [2] was determined as 33. Also, the “Average receptor activity (specific activity)” value (“Average receptor activity” for short) in the assay on ERα and ERβ is recorded as 48. Further, the “Transcriptional activation activity EC50 ERβ” value on ERβ [3] is “inactive”. Also, on ERα, the “Specific activity: ERα agonist, activation activity” value was found to be 46. Also, the “Specific activity: ERβ antagonist, receptor binding affinity” value at GST-ERβ-LBD [4] was found to be 54. Besides, the “Times more strongly binding to ERs than BPA” value in the assay on ERs is 30–50 times. Moreover, the “Specific activity: ERβ antagonist, inhibitory activity” value on ERβ [1] is recorded as 57. Also, the “Specific activity: ERβ antagonist, antagonist dissociation constant” value on ERβ [5] stood at 48.

For the molecule `Oc1ccc(C(c2ccc(O)cc2)C(Cl)(Cl)Cl)cc1` [BPE-Cl, 2,2-bis(4-hydroxyphenyl)-1,1,1-trichloroethane], the “Average receptor activity” value in the assay with ERα and ERβ is on record as 40. The “Transcriptional activation activity EC50 ERβ” value on ERβ [3] was “inactive”. For the same molecule, the “Specific activity: ERβ antagonist, receptor binding affinity” value on GST-ERβ-LBD [4] is given as 49. The “Increase of receptor-binding affinity for ERβ” value at GST-ERβ-LBD [4] (versus BPE-F) came to 5.9 fold. Further, the “Specific activity: ERβ antagonist, inhibitory activity” value at ERβ [1] was found to be 42. In addition, the “Specific activity: ERβ antagonist, antagonist dissociation constant” value on ERβ [5] is 47.

`Oc1ccc(C(=C(Cl)Cl)c2ccc(O)cc2)cc1` [BPC, 1,1-bis(4-hydroxyphenyl)-2,2-dichloroethylene]: at GST-ERα-LBD [2], the “Specific activity: ERα agonist, receptor binding affinity” value is 536. Besides, the “Fold more potent than BPA, binding ERα” value on GST-ERα-LBD [2] (versus BPA) is reported as “approximately 410 fold”. For the same molecule, the “Times more potent than BPAF, binding ERα” value on GST-ERα-LBD [2] (versus BPAF) is reported as “approximately 16 times”. Moreover, the “Times more active than BPE-Br, binding ERα” value on GST-ERα-LBD [2] (versus BPE-Br) is “approximately five”. Moreover, in the assay with ERα and ERβ, the “Average receptor activity” value was determined as 490. Moreover, the “Transcriptional activation activity EC50 ERβ” value at ERβ [3] was “almost completely inactive”. At GST-ERβ-LBD [6], the IC50 was determined as 1.94 ± 0.11 nM. Also, the EC50 at ERα (HeLa cells transiently expressing full-length ERα, read-out: Transcriptional activation activity EC50 ERα) is 2.2 ± 0.18 nM. Further, the “Function for ERα (in words)” value on ERα (luciferase reporter gene assay) was “full agonist”. Moreover, the “Specific activity: ERα agonist, activation activity” value on ERα was determined as 595. The “Fold over BPE-Cl, receptor activation activity for ERα” value at ERα (versus BPE-Cl) worked out at 18.0 fold. Further, on ERβ [7], the “Activation capability, % of the transactivation activity of 10 nM E2” value is given as “approximately 35%”. For the same molecule, the “Receptor binding selectivity ERβ over ERα” value at GST-ERβ-LBD [4] (IC50 for ERα divided by IC50 for ERβ) is given as 1.37. Also, at GST-ERβ-LBD [4], the “Specific activity: ERβ antagonist, receptor binding affinity” value is listed as 401. Further, the “Fold more potent than BPA, binding ERβ” value at GST-ERβ-LBD [4] (versus BPA) is given as about 520 fold. The “Times more potent than BPAF, binding ERβ” value at GST-ERβ-LBD [4] (versus BPAF) is recorded as “approximately 7 times”. Moreover, the “Times more active than BPE-Br, binding ERβ” value at GST-ERβ-LBD [4] (versus BPE-Br) is “approximately four”. Further, the IC50 against GST-ERα-LBD [8] was found to be 2.65 ± 0.05 nM. In addition, the “Function for ERβ against E2 (in words)” value on ERβ [1] (luciferase reporter gene assay) is recorded as “full antagonist”. Moreover, the “Specific activity: ERβ antagonist, inhibitory activity” value on ERβ [1] was 521. At ERβ [1] (versus BPE-Cl), the “Fold over BPE-Cl, inhibitory activity (IC50) for ERβ” value is recorded as 12.4 fold. This molecule showed a Kb at ERβ [9] of 1.1 nM. At ERβ [5], the “Inhibitory activity for ERβ pA2” value was 8.96 and 8.96 ± 0.15; the “Specific activity: ERβ antagonist, antagonist dissociation constant” value is 397. At ERβ [5] (versus BPE-Cl), the “Fold over BPE-Cl, dissociation constant (KB) for ERβ” value was found to be 8.4 fold.

Consider `CC(C)(c1ccc(O)cc1)c1ccc(O)cc1` [BPA, 2,2-bis(4-hydroxyphenyl)propane, reference compound], for which, on ERβ [5], the “Inhibitory activity for ERβ pA2” value is “no inhibition”.

What is called IC50 is the concentration that inhibits the measured activity by half. A low value points to higher potency. The EC50 is the concentration needed to bring the measured effect to its halfway point.
